“Also recorded” adds a separate entry of the source.
B1: FGF21: endocrine fibroblast growth factor 21 (protein, UniProt Q9NSA1 29-209, looked up)
Fibroblast growth factor 21: HPIPDSSPLLQFGGQVRQRYLYTDDAQQTEAHLEIREDGTVGGAADQSPESLLQLKALKPGVIQILGVKTSRFLCQRPDGALYGSLHFDPEACSFRELLLEDGYNVYQSEAHGLPLHLPGNKSPHRDPAPRGPARFLPLPGLPPALPEPPGILAPQPPDVGSSDPLSMVGPSQGRSPSYAS

Assays:
[1] = system: isolated neonatal rat ventricular cardiac myocytes (NRVM); assay: Surface area (hypertrophy) of isolated NRVM, immunocytochemistry and morphometry (Examples 1-2); format: cell-based; conditions: for FGF2-induced increase in cell surface area (hypertrophy) in presence of inhibitor: 48 h FGF2, inhibitor pre-treated 60 min at Table 2 concentration; for FGF23-induced increase in cell surface area (hypertrophy) in presence of inhibitor: 48 h FGF23, inhibitor pre-treated 60 min at Table 2 concentration; for cell surface area: 48 h incubation with the FGF alone
Description: NRVM were isolated using a standard isolation system (Worthington Biochemical Corporation) (Toraason et al., Toxicology, 56(1):107-117, 1989). Hearts from 1-2 day old Sprague Dawley rats (Charles River) were harvested, minced in calcium- and magnesium-free Hank's Balanced Salt Solution (HBSS), and the tissue digested with 50 μg/ml trypsin at 4° C. for 20-24 hours. Soybean trypsin inhibitor in HBSS was added and the tissue was further digested with collagenase (in Leibovitz L-15 medium) under slow rotation (15 rpm) at 37° C. for 45 minutes. Cells were released by gently triturating the suspension 20 times with a standard 10 ml plastic serological pipette and filtering it twice through a cell strainer (70 μm, BD Falcon). Cells were incubated at room temperature for 20 minutes and spun at 100 g for 5 minutes. The cell pellet was resuspended in plating medium [Dulbecco's Modified Eagle Medium (DMEM; Cellgro) with 17% Media 199 (Invitrogen), 15% fetal bovine serum (FBS; Invitrogen) and 1% penicillin/streptomycin solution (P/S; Invitrogen)]. Cells were counted using a hemocytometer.
Cells were plated on glass and plastic surfaces which were coated with laminin (Invitrogen; 10μg/ml in PBS) at room temperature for 1 hour prior to plating. For immunofluorescence analysis, 1×10^6 cells were seeded per well on glass coverslips in 6-well plates. For protein and RNA isolation, 2×10^6 cells were seeded in 6 cm-culture dishes. Cells were left undisturbed in plating medium at 37° C. for 72 hours and then cultured in maintenance medium (DMEM with 20% Media 199, 1% insulin-transferrin-sodium selenite solution (ITS; Sigma-Aldrich) and 1% P/S) in the presence of 100 μM 5-bromo-2′-deoxyuridine (BrdU; Sigam-Aldrich) to eliminate proliferating non-myocytes resulting in a relatively pure population of isolated cardiac myocytes (Bishopric et al., 1987). After 4 days, isolated cardiac myocytes were cultured in BrdU-containing maintenance medium in the presence of recombinant murine FGF23 (26.1 kDa, 251 amino acids; R&D Systems) or FGF2 (16.2 kDa, 144 amino acids; R&D Systems) for 48 hours.
We analyzed isolated NRVM on laminin-coated glass coverslips by immunocytochemsitry according to our established protocols (Faul et al., Cell Biol., 169(3):415-424, 2005; Faul et al., Cell Biol., 27(23):8215-8227, 2007). The mouse monoclonal antibody against sarcomeric α-actinin (EA-53; Sigma-Aldrich) was used at 1:1000 and Cy3-conjugated goat-anti mouse (Jackson Immuno Research) as secondary antibody at 1:750. To visualize nuclei, fixed cells were incubated with 4′,6-diamidino-2-phenylindole (DAPI; 400 ng/ml in PBS) for 5 minutes. Immunofluorescence images were taken on a Leica TCS-SP5 confocal microscope with a 63× oil objective with a 1.6× zoom. Leica AF6000 fluorescence software was used to measure the cell surface area based on α-actinin-positive staining.
To assess the signaling pathways involved in FGF23- and FGF2-mediated hypertrophy, we analyzed the morphometry of plated cells that were pre-treated with specific inhibitors for 60 minutes prior to the addition of the FGFs at varying concentrations.

[2] = system: neonatal mouse ventricular myocytes (NMVM); assay: Hypertrophic growth and β-MHC of isolated NMVM (wild-type or FGFR4−/−); format: cell-based; conditions: 48 h
Description: NMVM were isolated enzymatically (Kreusser et al., 2014). Briefly, hearts from 1-3 day-old mice were harvested, minced in PBS/glucose and further digested with collagenase type 2 (0.2% w/v) and DNase (0.05% w/v) on a rotary shaker at 37° C. for 11 minutes. Cells were then released from the tissue by triturating the suspension twice with a standard 10 ml plastic serological pipette, transferred to DF10 medium (Dulbecco's Modified Eagle Medium/Ham's Nutrient Mixture F12 adjusted to 17 mM NaHCO2 containing 2 mM L-glutamine, 1% P/S and 10% FBS), and stored on ice. The remaining tissue was further incubated in PBS/glucose/collagenase/DNase solution on a rotary shaker at 37° C. for 11 minutes. The trituration and incubation steps were repeated 5-7 times until the tissue was completely dissolved. Cells were pelleted at 300 g for 5 minutes, resuspended in DF20 media (Dulbecco's Modified Eagle Medium/Ham's Nutrient Mixture F12 adjusted to 17 mM NaHCO2 containing 2 mM L-glutamine, 1% P/S and 20% FBS), and preplated for 1 hour to eliminate fibroblasts. Remaining cells were counted using a hemocytometer and plated on glass and plastic surfaces, which were coated with laminin (Sigma-Aldrich; 10 μg/ml in PBS) at room temperature for 1 hour prior to plating. For immunofluorescence analysis, 3×10^5 cells were seeded per well on glass coverslips in 24-well plates. For Western blot analyses of total protein extracts, 5×10^6 cells were seeded in 10 cm-culture dishes. Cells were left undisturbed in DF20 medium at 37° C. for 72 hours, starved overnight with DF medium (Dulbecco's Modified Eagle Medium/Ham's Nutrient Mixture F12 adjusted to 17 mM NaHCO2 containing 2 mM L-glutamine, 1% P/S), and treated in DF medium with recombinant FGF23, FGF2 (both at 100 ng/ml) or AngII (1 μM, Sigma-Aldrich) for 48 hours.
HEK293 cells, NRVM or NMVM were treated with growth factors for 30 minutes to analyze activation of signal transduction mediators, or for 48 hours to analyze expression levels of hypertrophic marker proteins. Cells were scraped from 6-well plates using 500 μl CHAPS extraction buffer (20 mM Tris-HCl pH7.5, 500 mM NaCl, 0.5% CHAPS, protease inhibitor cocktail (Roche), protein phosphatase inhibitors [Sigma-Aldrich]) and incubated on ice for 30 minutes. The cell lysate was centrifuged at 14,000 rpm and 4° C. for 30 minutes, and the supernatant boiled in sample buffer and analyzed by SDS-PAGE and immunoblotting. For protein extraction from mouse hearts, tissue was isolated, minced and homogenized in RIPA extraction buffer (50 mM Tris-HCl pH 7.5, 200 mM NaCl, 1% Triton X-100, 0.25% DOC, 1 mM EDTA, 1 mM EGTA, protease and phosphatase inhibitors) at 1:10 (w:v), and protein lysates were prepared as described above.
Cultured cells were fixed in 2% PFA (in 5 mg/ml sucrose) for 5 minutes and permeabilized in 1% Triton X-100 (in PBS) for 10 minutes. We analyzed hypertrophic growth of isolated NRVM and NMVM on laminin-coated glass coverslips after 48 hours of treatment with growth factors. For FGFR4 expression and localization analyses, untreated NMVM from wild-type and FGFR4^−/− mice were immunolabeled. The mouse monoclonal antibody against sarcomeric α-actinin (EA-53; Sigma-Aldrich) was used at 1:1,000, and rabbit polyclonal anti-FGFR4 (C-16; Santa Cruz) at 1:50. Cy3-conjugated goat-anti mouse and Alexa488-conjugated goat-anti rabbit (Jackson Immuno Research) were used as secondary antibodies at 1:300. To visualize nuclei, fixed cells were incubated with 4′,6-diamidino-2-phenylindole (DAPI; 400 ng/ml in PBS) for 10 minutes. Immunofluorescence images were taken on a Leica TCS-SP5 confocal microscope with a 63× oil objective.
Myocyte cross-sectional area was measured based on α-actinin-positive staining using Leica AF6000 fluorescence software. […]

C57BL/6 mice = assay: Intravenous injection of FGFs (with or without Fc-FGFR decoy receptors) in mice; format: in vivo, mouse; conditions: 40 μg/kg FGF, ten times over five days
Description: Twelve-week old adult C57BL/6 mice underwent tail vein injections using standard protocols as previously described for the systemic delivery of plasmid DNA (Faul et al., 2008). Briefly, mice were placed in a restrainer and 40 μg/kg of FGF23 dissolved in 200 μl of PBS were injected into the tail vein of 5 mice twice daily with eight hours in between injections for 5 consecutive days. Four mice underwent the same injection schedule using 200 μl of PBS alone as negative control. On the morning of the 6th day, 16 hours after the final tail vein injections, animals were sacrificed and the hearts were isolated and prepared using the same protocol as described above.
Short-axis cardiac sections were used to quantify myocardial thickness by measuring the distance from the inner to the outer myocardial zone at the mid-chamber zone. […] Since klothro-ablated kl/kl mice display severe growth retardation with small hearts (Kuro-o et al., Nature, 390(6655):45-51, 1997), we also measured relative wall thickness calculated as two times the anterior wall thickness divided by left ventricular internal diameter. Total RNA was isolated from flash frozen hearts using TRIzol (Invitrogen) and RT-PCR analyses were performed as described above.
We measured cross-sectional surface area of cardiac myocytes in paraffin-embedded short-axis sections of the heart. Briefly, 7 μm thick sections were deparaffinized according to our established protocols. To specifically label cardiac myocytes, we used mouse monoclonal MF20 antibody against sarcomeric myosin at 1:200 and Cy5-conjugated donkey-anti mouse (Invitrogen) as secondary antibody at 1:400. To visualize nuclei, fixed tissue was incubated with 4′,6-diamidino-2-phenylindole (DAPI; 400 ng/ml in PBS) for 5 minutes. To visualize cellular borders, fixed tissue was incubated with wheat germ agglutinin (WGA) conjugated to Alexa Fluor 555 (Invitrogen) at 1 mg/ml in PBS containing 10 mM sodium azide. Immunofluorescence images were taken on a Leica TCS-SP5 confocal microscope with a 63× oil objective. Leica AF6000 fluorescence software was used to quantify cross-sectional cell surface area of 25 cells per field at four fields along the mid-chamber free wall based on WGA-positive staining.
Next, we wanted to determine the effectiveness of this FGFR trapping system on FGF-induced LVH in mice. To our knowledge, Fc decoy receptors have not yet been used to study FGFR function in vivo in any biological context, but served as valuable tools to analyze the functions of other receptor tyrosine kinases, like receptors for vascular endothelial growth factor (VEGFR) and their role in tumor growth and metastasis. We used similar Fc-FGFR concentrations as described for Fc-VEGFR in animal models of cancer (Lin J et al., Cancer Res. 2005; 65(15):6901-9).

Molecule	FGF2-induced increase in cell surface area (hypertrophy) in presence of inhibitor [1]	FGF23-induced increase in cell surface area (hypertrophy) in presence of inhibitor [1]	cell surface area [1]	other results
N#CC(=C(/N)Sc1ccccc1N)/C(C#N)=C(\N)Sc1ccccc1N [U0126]	completely prevented	only partially diminished		
COc1cccc(-c2cc(=O)c3ccccc3o2)c1N [PD98059]	completely prevented	only partially diminished		
FGF4			no change in size; also recorded: did not induce a hypertrophic response	
O=c1[nH]c2ccccc2n1C1CCN(Cc2ccc(-c3nc4cc5nc[nH]c5cc4nc3-c3ccccc3)cc2)CC1 [A6730]	partially attenuated	did not significantly alter		
angiotensin (Ang) II [AngII, pro-hypertrophic angiotensin II (Sigma-Aldrich), reference compound]				expression of β-MHC protein in FGFR4−/− NMVM ([2]; immunoblot): induced this effect; expression of β-MHC protein in wild-type NMVM ([2]; immunoblot): increased expression; cross-sectional area (size) of NMVM from FGFR4−/− mice ([2]; FGF 100 ng/ml, AngII 1 μM): increase the size; cross-sectional area of wild-type NMVM ([2]; FGF 100 ng/ml, AngII 1 μM): significant increases
COc1ccc2c(c1)CC[C@@H]1[C@@H]2CC[C@]2(C)[C@@H](NCCCCCCN3C(=O)C=CC3=O)CC[C@@H]12 [U73122]	had no effect	attenuated		
FGF19: endocrine fibroblast growth factor 19			significant dose-dependent increase	induction of LVH (C57BL/6 mice): significant induction of LVH
B1			significant dose-dependent increase	induction of LVH (C57BL/6 mice): significant induction of LVH

From patent US20160039936A1, “FIBROBLAST GROWTH FACTOR RECEPTOR INHIBITION FOR THE TREATMENT OF DISEASE” (UNIVERSITY OF MIAMI, priority 2011, published 2016)
